Test results reported in publication PMC4414180, “SKI2162, an inhibitor of the TGF-β type I receptor (ALK5), inhibits radiation-induced fibrosis in mice” (Oncotarget, 2015).

Tests used:
p38 MAPK = target: T1, p38 MAPK (Homo sapiens, UniProt Q16539); test: p38 MAPK selectivity, radioisotope-based (33P) kinase assay; type: biochemical; conditions: Supplementary Table 1, unit inferred
T1 construct: GST/histidine tag; made in house; host or cells: insect cells
Procedure: (§1) The kinase activity of ALK5, ALK1, and p38 MAPK were assessed by measuring radiolabelled phosphate (^33P) incorporation into casein. ALK1 and p38 MAPK are closely related to ALK5, and were used for comparison with ALK5 in a SKI2162 selectivity study. IC50 values were calculated from dose–response curves. […]
(§2) www.impactjournals.com/oncotarget/ Oncotarget, Advance Publications 2014 SUPPLEMENTARY METHODS AND MATERIALS
(§3) Cell culture and reagents ACC-3′ (reverse). All samples were normalized to A human keratinocyte cell line (HaCaT) and GAPDH and expressed as the fold induction. Relative an SV40-transformed human fibroblast cell line expression levels were calculated using the comparative (WI38VA13) were cultured in Minimum Essential threshold method. All reactions were done in triplicate.
(§4) Media (Gibco/Life Technologies, USA) or in Dulbecco’s Histopathologic evaluation and fibrosis-related Modified Eagle’s Medium (Gibco/Life Technologies, gene expression in RIF tissues USA), respectively, with 10% fetal bovine serum (Gibco/
(§5) Life Technologies, USA), in a humidified 5% CO2 The skin and soft tissue of the irradiated leg was […]

ALK1 = target: T2, ALK1 (Homo sapiens, UniProt P37023); test: ALK1 selectivity, radioisotope-based (33P) kinase assay; type: biochemical; conditions: Supplementary Table 1, unit inferred
T2 construct: GST/histidine tag; made in house; host or cells: insect cells
T2 sequence (P37023 22-503, species assumed): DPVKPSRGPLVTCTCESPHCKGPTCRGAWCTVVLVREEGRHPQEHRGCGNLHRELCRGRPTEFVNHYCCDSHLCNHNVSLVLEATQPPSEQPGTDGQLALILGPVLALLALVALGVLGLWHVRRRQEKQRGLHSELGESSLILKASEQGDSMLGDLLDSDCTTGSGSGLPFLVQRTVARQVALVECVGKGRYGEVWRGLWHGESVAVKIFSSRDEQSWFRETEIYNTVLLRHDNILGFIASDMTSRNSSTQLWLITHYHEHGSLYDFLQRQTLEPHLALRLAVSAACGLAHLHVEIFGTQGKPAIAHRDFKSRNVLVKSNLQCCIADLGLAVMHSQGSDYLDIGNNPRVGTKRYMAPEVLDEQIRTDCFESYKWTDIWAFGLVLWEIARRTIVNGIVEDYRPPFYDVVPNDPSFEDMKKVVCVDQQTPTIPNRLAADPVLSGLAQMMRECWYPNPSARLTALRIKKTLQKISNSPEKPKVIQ
Procedure: as §1, §2, §3, §4, §5

T1 sequence (Q16539 whole entry): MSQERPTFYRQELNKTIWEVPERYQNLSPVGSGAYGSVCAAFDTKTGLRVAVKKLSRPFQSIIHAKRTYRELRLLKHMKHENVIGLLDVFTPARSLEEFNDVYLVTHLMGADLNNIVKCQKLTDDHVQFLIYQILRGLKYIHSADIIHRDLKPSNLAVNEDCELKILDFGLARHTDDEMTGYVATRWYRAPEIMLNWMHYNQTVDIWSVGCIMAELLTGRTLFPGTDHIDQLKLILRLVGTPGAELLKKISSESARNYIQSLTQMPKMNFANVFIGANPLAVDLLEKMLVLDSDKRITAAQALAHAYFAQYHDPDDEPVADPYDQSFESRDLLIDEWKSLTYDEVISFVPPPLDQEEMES

Cc1cccc(-c2nn3c(c2-c2ccnc4ccc(C(N)=O)cc24)CCC3)n1 [LY2157299]
IC50 (p38 MAPK): 0.379 µM | IC50 (ALK1): 9.9 µM
